# According to article PMC8713471, “Insights Into the Inhibition of MOX-1 β-Lactamase by S02030, a Boronic Acid Transition State Inhibitor” (Frontiers in Microbiology, 2021):
# Legend:
# MOX-1 β-lactamase [1] = target: T1, MOX-1 β-lactamase (Klebsiella pneumoniae, UniProt Q51578); test: Inhibition of cephalothin hydrolysis by purified MOX-1, […] min pre-incubation, UV/VIS (Ki and IC50); format: biochemical; parameters: gene blaMOX-1; purified MOX-1, (His)8 tag removed with thrombin
# MOX-1 β-lactamase [2] = target: T1, MOX-1 β-lactamase; test: X-ray crystal structure at […] Å; also Ki and IC50 with purified enzyme (cephalothin hydrolysis); format: biochemical; parameters: gene blaMOX-1; N-terminal (His)8-tagged MOX-1 for crystals (model Asp6-Arg305 and Gln310-Gly362); tag removed with thrombin for kinetics
# T1 sequence (Q51578 entry or part of it): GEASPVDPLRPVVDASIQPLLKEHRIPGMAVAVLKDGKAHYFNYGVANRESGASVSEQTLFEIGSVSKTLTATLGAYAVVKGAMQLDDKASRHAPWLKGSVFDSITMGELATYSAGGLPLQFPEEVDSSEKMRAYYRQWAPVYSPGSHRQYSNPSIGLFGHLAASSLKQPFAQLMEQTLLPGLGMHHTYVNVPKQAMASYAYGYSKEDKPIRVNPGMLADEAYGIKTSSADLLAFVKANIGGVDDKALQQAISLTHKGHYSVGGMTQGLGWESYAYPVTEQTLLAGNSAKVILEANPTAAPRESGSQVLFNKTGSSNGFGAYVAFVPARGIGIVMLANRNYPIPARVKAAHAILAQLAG
Ki (MOX-1 β-lactamase [2]) [nM],Structure (SMILES),Ki (MOX-1 β-lactamase [1]) [nM]
,C[C@H]1[C@H](NC(=O)/C(=N\OC(C)(C)C(=O)O)c2csc(N)n2)C(=O)N1S(=O)(=O)O [Aztreonam],10 ± 1
560 ± 30,O=C(Cc1cccs1)N[C@@H](Cn1cc(C(=O)O)nn1)B(O)O [S02030],
